Source: PubChem BioAssay (NCI)
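Interpolation was linear, between the two tested concentrations surrounding the appropriate level; five concentrations were tested over 48 hours in 96-well plates. GI50 marks 50% less growth. Definition used: TGI = concentration required for complete inhibition of growth.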

Legend:
Test in all cases: NCI tumour cell line growth inhibition, 48 h
RXF 393 renal = system: RXF 393 renal
NCI-H23 lung = system: NCI-H23 lung
HCC-2998 colon = system: HCC-2998 colon
T-47D breast = system: T-47D breast
M14 melanoma = system: M14 melanoma
NCI-H226 lung = system: NCI-H226 lung
SK-MEL-5 melanoma = system: SK-MEL-5 melanoma
OVCAR-3 ovarian = system: OVCAR-3 ovarian
UO-31 renal = system: UO-31 renal
TK-10 renal = system: TK-10 renal
SF-295 CNS = system: SF-295 CNS
MALME-3M melanoma = system: MALME-3M melanoma
PC-3 prostate = system: PC-3 prostate
U251 CNS = system: U251 CNS
SNB-19 CNS = system: SNB-19 CNS
MOLT-4 leukemia = system: MOLT-4 leukemia
IGROV1 ovarian = system: IGROV1 ovarian
LOX IMVI melanoma = system: LOX IMVI melanoma
CAKI-1 renal = system: CAKI-1 renal
RPMI-8226 leukemia = system: RPMI-8226 leukemia
SF-268 CNS = system: SF-268 CNS
UACC-62 melanoma = system: UACC-62 melanoma
HT29 colon = system: HT29 colon
HL-60(TB) leukemia = system: HL-60(TB) leukemia
MDA-MB-468 breast = system: MDA-MB-468 breast
EKVX NSCLC = system: EKVX NSCLC
CCRF-CEM leukemia = system: CCRF-CEM leukemia
SK-MEL-2 melanoma = system: SK-MEL-2 melanoma
A549 NSCLC = system: A549 NSCLC
SW-620 colon = system: SW-620 colon
HS 578T breast = system: HS 578T breast
HOP-92 NSCLC = system: HOP-92 NSCLC
COLO 205 colon = system: COLO 205 colon
MDA-MB-231 breast = system: MDA-MB-231 breast
MCF7 breast = system: MCF7 breast
OVCAR-4 ovarian = system: OVCAR-4 ovarian
K-562 leukemia = system: K-562 leukemia
HOP-62 NSCLC = system: HOP-62 NSCLC
DU-145 prostate = system: DU-145 prostate
A498 renal = system: A498 renal
SR leukemia = system: SR leukemia
NCI-H522 lung = system: NCI-H522 lung
SN12C renal = system: SN12C renal
HCT-15 colon = system: HCT-15 colon
SF-539 CNS = system: SF-539 CNS
SK-OV-3 ovarian = system: SK-OV-3 ovarian
786-0 renal = system: 786-0 renal
BT-549 breast = system: BT-549 breast
MDA-MB-435 = system: MDA-MB-435
HCT-116 colon = system: HCT-116 colon
UACC-257 melanoma = system: UACC-257 melanoma
ACHN renal = system: ACHN renal
NCI-H460 lung = system: NCI-H460 lung
SK-MEL-28 melanoma = system: SK-MEL-28 melanoma
OVCAR-8 ovarian = system: OVCAR-8 ovarian
KM12 colon = system: KM12 colon

## COc1cc(/C=C/C(=O)c2cnn(-c3cc(=O)[nH]c4ccccc34)c2C)cc(OC)c1OC
RXF 393 renal
  GI50: 2.65 µM
  TGI: 8.21 µM
NCI-H23 lung
  GI50: 2.66 µM
  TGI: 7.98 µM
HCC-2998 colon
  GI50: 4 µM
  TGI: > 100 µM
T-47D breast
  GI50: 2.8 µM
  TGI: > 100 µM
M14 melanoma
  GI50: 4.45 µM
  TGI: > 100 µM
NCI-H226 lung
  GI50: 5.24 µM
  TGI: 47.8 µM
SK-MEL-5 melanoma
  GI50: 3.51 µM
  TGI: 14.7 µM
OVCAR-3 ovarian
  GI50: 3.57 µM
  TGI: > 100 µM
UO-31 renal
  GI50: 4.03 µM
  TGI: 37.1 µM
TK-10 renal
  GI50: 4.62 µM
  TGI: > 100 µM
SF-295 CNS
  GI50: 2.95 µM
  TGI: 18.1 µM
MALME-3M melanoma
  GI50: 5.84 µM
  TGI: > 100 µM
PC-3 prostate
  GI50: 7.39 µM
  TGI: > 100 µM
U251 CNS
  GI50: 2.74 µM
  TGI: 13.6 µM
SNB-19 CNS
  GI50: 5.23 µM
  TGI: > 100 µM
MOLT-4 leukemia
  GI50: 3.28 µM
  TGI: > 100 µM
IGROV1 ovarian
  GI50: 3 µM
  TGI: 16.3 µM
LOX IMVI melanoma
  GI50: 2.1 µM
  TGI: 5.64 µM
CAKI-1 renal
  GI50: 4.05 µM
  TGI: > 100 µM
RPMI-8226 leukemia
  GI50: 2.99 µM
  TGI: > 100 µM
SF-268 CNS
  GI50: 4.26 µM
  TGI: > 100 µM
UACC-62 melanoma
  GI50: 5.18 µM
  TGI: 20.5 µM
HT29 colon
  GI50: 3.14 µM
  TGI: > 100 µM
HL-60(TB) leukemia
  GI50: 3.52 µM
  TGI: > 100 µM
MDA-MB-468 breast
  GI50: 2.22 µM
  TGI: 6.06 µM
EKVX NSCLC
  GI50: 3.42 µM
  TGI: > 100 µM
CCRF-CEM leukemia
  GI50: 2.58 µM
  TGI: 21.5 µM
SK-MEL-2 melanoma
  GI50: 2.89 µM
  TGI: 10.2 µM
A549 NSCLC
  GI50: 3.78 µM
  TGI: > 100 µM
SW-620 colon
  GI50: 3.59 µM
  TGI: > 100 µM
HS 578T breast
  GI50: 4.54 µM
  TGI: > 100 µM
HOP-92 NSCLC
  GI50: 7.59 µM
  TGI: 51.8 µM
COLO 205 colon
  GI50: 3.71 µM
  TGI: 17.5 µM
MDA-MB-231 breast
  GI50: 3.06 µM
  TGI: 14.1 µM
MCF7 breast
  GI50: 2.88 µM
  TGI: > 100 µM
OVCAR-4 ovarian
  GI50: 5.48 µM
  TGI: > 100 µM
K-562 leukemia
  GI50: 2.68 µM
  TGI: > 100 µM
HOP-62 NSCLC
  GI50: 4.43 µM
  TGI: 27.1 µM
DU-145 prostate
  GI50: 4.21 µM
  TGI: > 100 µM
A498 renal
  GI50: 34.2 µM
  TGI: > 100 µM
SR leukemia
  GI50: 3.82 µM
  TGI: > 100 µM
NCI-H522 lung
  GI50: 3.74 µM
  TGI: 39.8 µM
SN12C renal
  GI50: 2.2 µM
  TGI: 8.36 µM
HCT-15 colon
  GI50: 3.23 µM
  TGI: 26.1 µM
SF-539 CNS
  GI50: 2.01 µM
  TGI: 4.84 µM
SK-OV-3 ovarian
  GI50: 5.03 µM
  TGI: 35.9 µM
786-0 renal
  GI50: 4.56 µM
  TGI: 28.9 µM
BT-549 breast
  GI50: 3.48 µM
  TGI: 24.9 µM
MDA-MB-435
  GI50: 3.34 µM
  TGI: > 100 µM
HCT-116 colon
  GI50: 7.13 µM
  TGI: > 100 µM
UACC-257 melanoma
  GI50: 7.03 µM
  TGI: > 100 µM
ACHN renal
  GI50: 3.72 µM
  TGI: 25.5 µM
NCI-H460 lung
  GI50: 2.55 µM
  TGI: 7.29 µM
SK-MEL-28 melanoma
  GI50: 4.94 µM
  TGI: > 100 µM
OVCAR-8 ovarian
  GI50: 2.11 µM
  TGI: 5.09 µM
KM12 colon
  GI50: 3.83 µM
  TGI: > 100 µM
